Laboratory results published in patent US20130203649A1, “INHIBITORS OF TLR SIGNALING BY TARGETING TIR DOMAIN INTERFACES” (UNIVERSITY OF MARYLAND, BALTIMORE, priority 2012, published 2013).
No end group written: not given here.

Tested on: C57BL/6J mice
Assay: Survival after lethal LPS challenge in C57BL/6J mice
Type: in vivo, mouse
Conditions: LPS 17.5 μg/g i.p.; peptide 10 nmol/g i.p. 1 h before
Protocol: FIG. 10. […] (A-E) C57BL/6J mice were injected i.p. with purified Escherichia coli K235 LPS (1 μg/g) or PBS. Peptides (10 nmol/g of animal weight) were injected i.p. (A, B, D, E) or i.v. (C) 1 h before (A, B, and C) or 30 min after (D, E) i.p. injection of LPS. Data in panels A and D show plasma IL-6 and TNF-α levels measured 2 h after LPS challenge. Peptide TM8/9 was used as a non-inhibitory control peptide. Data represent the means±s.e.m. for 6-12 blood samples obtained in at least three independent experiments. *p<0.01. (F, G) C57BL/6J mice were challenged i.p. with a lethal LPS dose (17.5 μg/g). Peptides (10 nmol/g) were injected i.p. 1 h before LPS challenge. […] The statistical significance of changes in mortality and survival time was determined by the Mantel Cox log-rank test using GraphPad Prism software (Version 5.04). *p<0.01.
Eight-week-old C57BL/6J mice were injected with 1 or 17.5 μg/g animal weight of E. coli K235 LPS i.p. Peptides reconstituted in PBS were administered i.p. or i.v. Control groups received equivalent volume of solvent (PBS). The blood samples were collected 1, 2, 4, and 8 h, or 2, 8, and 24 h after LPS challenge. The plasma samples were obtained and kept frozen until TNF-α and IL-6 were measured by ELISA. Survival of animals was monitored every 6-16 h after LPS challenge. All animal experiments were carried out with institutional approval.
We next studied whether inhibitory peptides protect mice from a lethal LPS challenge. TR6, a previously described inhibitory peptide derived from the third helical region of TRAP (30), was also included in this study as an additional control. C57BL/6J mice were injected i.p. with 17.5 μg/g LPS. This dose induced 100% mortality in the control group (FIG. 10F). […] The peptide-treated survivors appeared active and healthy at the time the experiments were terminated, 7 d after injection of LPS.

## RQIKIWFQNRRMKWKKPGFLRDPWCKYQML [TR6]
  Survival after lethal LPS challenge: improved animal survival comparably to TM6
